Measurements taken from patent US4381301A, “Substituted tricyclic thieno compounds, their synthesis, their use, their compositions and their medicaments” (BYK Gulden Lomberg Chemische Fabrik GmbH, priority 1980, dated 1983).

How the values were obtained:
[1] = Antiulcerogenic (protective) action on the stomach, so-called Shay rat (pylorus ligature + acetylsalicylic acid), ulcer index; assay type: in vivo; details: rat, in vivo; LD50 i.v. mice / ED50 p.o. rats; read-out: TQ LD50/ED50 (therapeutic quotient)
Procedure: (§1) ED50 = dose which reduces the ulcer index by 50% in the treated grou
(§2) compared with the control group
(§3) The antiulcerogenic action was tested in accordance with the method using the so-called Shay rat:
(§4) Rats (female, 180 to 200 g, 4 animals per cage on a high grid) which had been fasted for 24 hours were subjected to ulcer provocation by pylorus ligature (under diethyl ether anaesthesia) and oral administration of 100 mg/10 ml/kg of acetylsalicylic acid. The substances to be tested are administered orally (10 ml/kg) 1 hour before the pylorus ligature. The wound is closed by means of Michel clamps. 4 hours thereafter, the animals are killed under ether anaesthesia by atlas dislocation, and the stomach is removed. The stomach is opened longitudinally and fixed to a cork tile after the amount of gastric juice secreted (volume) has been determined; the number and size (=diameter) of ulcers present are determined with a stereomicroscope with 10-fold magnification. The product of the degree of severity (according to the following rating scale) and the number of ulcers serves as the individual ulcer index. […]
(§5) ______________________________________
(§6) The reduction in the average ulcer index of each treated group compared with that of the control group (=100%) serves as a measure of the antiulcerogenic effect. The ED50 designates the dose which reduces the average ulcer index by 50%.

[2] = test system: stomach (Shay rat, gastric ulcers); assay: as above; assay type: in vivo; details: for ED50: Rattus norvegicus, po, peroral administration to rats, 1 hour before pylorus ligature, dose which reduces the ulcer index by 50% compared with control; for dose/action curve (antiulcerogenic action): compound 1 even at 300 mg/kg
Procedure: as §1, §2, §3, §4, §5, §6

Gastric secretion = assay: Inhibition of gastric secretion in the Shay rat; assay type: in vivo; details: in rats, 4 hours after administration of the antiulcerogenic ED50
Procedure: ^(+) % inhibition = inhibition of the gastric secretion (in %) 4 hour
after administration of the antiulcerogenic ED50
Rats (female, 180 to 200 g, 4 animals per cage on a high grid) which had been fasted for 24 hours were subjected to ulcer provocation by pylorus ligature (under diethyl ether anaesthesia) and oral administration of 100 mg/10 ml/kg of acetylsalicylic acid. The substances to be tested are administered orally (10 ml/kg) 1 hour before the pylorus ligature. The wound is closed by means of Michel clamps. 4 hours thereafter, the animals are killed under ether anaesthesia by atlas dislocation, and the stomach is removed. The stomach is opened longitudinally and fixed to a cork tile after the amount of gastric juice secreted (volume) has been determined; the number and size (=diameter) of ulcers present are determined with a stereomicroscope with 10-fold magnification. The product of the degree of severity (according to the following rating scale) and the number of ulcers serves as the individual ulcer index.

[3] = Determination of acute toxicity (LD50) in mice; details: mouse, in vivo; intravenous administration to mice; 7 days observation
Procedure: LD50 = dose at which 50% of the animals
The toxicity investigations are carried out on female NMRI mice (body weight: 22 to 26 g). The animals (5 animals per dose) receive feed and water ad libitum. Various doses of the substances are administered intravenously (injection time: 1 minute). The observation period is 7 days. The LD50 (the dose at which 50% of the animals die) is determined by means of linear regression.

SMILES: CC1(C)[C@@H](OC(=O)CCC(=O)O)CC[C@]2(C)[C@H]3C(=O)C=C4[C@@H]5C[C@@](C)(C(=O)O)CC[C@]5(C)CC[C@@]4(C)[C@]3(C)CC[C@@H]12 [compound 1, carbenoxolone, reference compound]
- selectivity ratio [1]: 4.1
- ED50 [2]: ~70 mg/kg
- dose/action curve (antiulcerogenic action) ([2]; oral, rats): very severely flattened so that no substantial increase in the ulcerogenic action can be achieved even at 300 mg/kg
- Gastric secretion % inhibition (Gastric secretion): 7%

SMILES: CN1CCN(CC(=O)N2c3ccccc3NC(=O)c3cscc32)CC1 [compound 2, 9,10-dihydro-4-[(4-methylpiperazin-1-yl)acetyl]-4H-thieno[3,4-b][1,5]benzodiazepin-10-one]
- selectivity ratio [1]: 76
- inhibition effects (antiulcerogenic action) ([2]; 10 mg/kg, oral, rats): up to 95%
- ED50 [2]: 2.5 mg/kg
- dose/action curve (antiulcerogenic action) ([2]; oral, rats): strictly dependent on the dose
- LD50 at 168 h [3]: 190 mg/kg
- Gastric secretion % inhibition (Gastric secretion): 35%
